Values after ≈ are worked out from the molar mass of the structure shown. Active and inactive are the calls of the source. The rule behind the calls is not given here.

We go through 36 molecules from ChEMBL document CHEMBL5346885, “"Hit" to lead optimization and chemoinformatic studies for a new series of Autotaxin inhibitors” (Eur J Med Chem, 2023).

The target in series [1] is Autotaxin (Mus musculus, UniProt Q9R1E6). The experiment in a line: Inhibition of mouse ATX using LPC as substrate preincubated with compound for 15 mins followed by substrate addition measured after 30 mins by Amplex Red reagent based fluorescence analysis.
In series [2] the target is T1, Autotaxin (Homo sapiens, UniProt Q13822). Kind of series: Inhibition of human ATX using LPC as substrate preincubated with compound for 15 mins followed by substrate addition measured after 30 mins by Amplex Red reagent based fluorescence analysis.
Series [3] is described as follows: Kinetic solubility of compound in PBS at pH 7.4 by HPLC analysis.
The nature of series [4]: Cytotoxicity against wild type Fibroblast (unknown origin) assessed as redcution in cell growth measured after 48 hrs by crystal violet staining based analysis. Conditions: wild type fibroblasts.
In series [5] the test system is A549. The experiment in a line: Antitumor activity against human A549 cells assessed as redcution in cell viability measured after 24 hrs by MTT assay. The series is classed as functional, cell-based. Conditions: dose 0.5-50 µM. Background: Tetrazolium assays rely on reduction of a dye to a coloured formazan, in cell work by metabolically active cells.
Series [6] is described as follows: Kinetic solubility of compound in simulated gastric fluid at pH 1.7 by HPLC analysis.
Series [7] has as its system A549. The experiment in a line: Antiproliferative activity against human A549 cells assessed as redcution in cell growth measured after 24 hrs by MTT assay. It is filed as functional, cell-based. Conditions: dose 0.5-50 µM.
Series [8] concerns the target T1, Autotaxin. The experiment in a line: Mixed type inhibition of human ATX assessed as inhibition constant using LPC as substrate by Lineweaver-Burk plot analysis.
Series [9] concerns A549. The experiment in a line: Inhibition of cell migration in human A549 cells at 5 uM incubated for 24 hrs by crystal violet staining based transwell assay. The series is classed as functional.
The nature of series [10]: Kinetic solubility of compound in simulated intestinal fluid at pH 6.6 by HPLC analysis.
Series [11] addresses 3',5'-cyclic phosphodiesterase. Kind of series: Inhibition of PDE (unknown origin). The series is classed as protein assay, Homo sapiens.
Series [12] has as its system O=C(Nc1c2c(nn1-c1ccc(Br)cc1)CSC2)c1cc(Cl)cc(Cl)c1. Kind of series: (§1) Mixed type inhibition of human ATX assessed as km using LPC as substrate by Lineweaver-Burk plot analysis.
For series [13], the system named is CO[C@](C(=O)Nc1c2c(nn1-c1ccc(Br)cc1)CSC2)(c1ccccc1)C(F)(F)F. Described as §1.

`Cc1ccc(-n2nc3c(c2NC(=O)c2cccc4ccccc24)CSC3)cc1Cl`: in [1], the IC50 – broadly, the concentration that gives 50% inhibition – worked out at 80 µM. On to `O=C(Nc1c2c(nn1-c1ccc(Br)cc1)CS(=O)(=O)C2)c1cccc2ccccc12`, for which, in series [2], the IC50 is over 100 µM. Regarding `O=C(Cc1ccc2ccccc2c1)Nc1c2c(nn1-c1ccc(Br)cc1)CSC2`, in series [2], the IC50 is 21.2 µM. As for `O=C(Nc1c2c(nn1-c1ccc(F)c(Cl)c1)CSC2)c1cccc2ccccc12`, the IC50 in series [1] was 40.8 µM.

For the molecule `CO[C@](C(=O)Nc1c2c(nn1-c1ccc(Br)cc1)CSC2)(c1ccccc1)C(F)(F)F`, the solubility (kinetic) (commonly solubility judged after dilution from a stock solution rather than from solid) in [3] is 1.26 µM (≈ 0.646 µg/mL); in series [6], 16.7 µM (≈ 8.58 µg/mL); in series [10], 2.55 µM (≈ 1.31 µg/mL). Further, the CC50 – broadly, the concentration giving 50% cytotoxicity – at 48 h in series [4] is over 100 µM. Also, the Activity entry in series [5] and in [7] was “Dose-Dependent Effect” in each case. Further, the concentration for half-maximal inhibition (IC50) in series [2] is 2 µM. Further, the inhibition constant Ki (in general, the dissociation constant of the complex between target and ligand, obtained from inhibition or displacement) in series [8] is 6.83 µM. In addition, the inhibition result in series [9] is “Active”. Take `O=C(Nc1c2c(nn1-c1ccc(Br)cc1)CSC2)c1cc(F)cc(C(F)(F)F)c1`: the IC50 in [2] turned out to be 11.2 µM. For the molecule `O=C(Nc1c2c(nn1-c1ccccc1)CSC2)c1cccc2ccccc12`, the IC50 in series [1] and in [2] was over 100 µM each time.

As for `CC(C)(C)n1nc2c(c1NC(=O)c1cccc3ccccc13)CSC2`, the IC50 in [1] is over 100 µM. As for `O=C(Nc1c2c(nn1-c1ccc(Cl)c(Cl)c1)CSC2)c1cccc2ccccc12`, the 50% inhibitory concentration (IC50) in series [1] worked out at 40 µM. For `O=C(Nc1c2c(nn1-c1ccc(Br)cc1)COC2)c1cc(Cl)cc(Cl)c1`, in series [2], the IC50 is over 100 µM.

For `COC(=O)c1ccc(-n2nc3c(c2NC(=O)c2cccc4ccccc24)CSC3)cc1`, the IC50 in [1] was over 100 µM.

For `Cc1cc(C(=O)Nc2c3c(nn2-c2ccc(Br)cc2)CSC3)ccc1F`, in series [2], the half-inhibitory concentration (IC50) turned out to be 41.8 µM. `O=C1S/C(=C\c2ccc(OCc3ccc(B(O)O)cc3)cc2)C(=O)N1Cc1ccc(F)cc1`: the kinetic solubility in [6] is 3.08 µM (≈ 1.43 µg/mL); in series [10], 1.05 µM (≈ 0.486 µg/mL). For `O=C(Nc1c2c(nn1-c1ccc(OC(F)(F)F)cc1)CSC2)c1cccc2ccccc12`, the IC50 in series [1] came out at 22.1 µM. Take `O=C(Nc1c2c(nn1-c1ccc(Br)cc1)CSC2)c1ccc2ccccc2c1`: in [2], the half-maximal inhibitory concentration (IC50) amounted to 12.1 µM. Regarding `CCc1nc2c(C)cc(N3CCN(CC(=O)N4CC(O)C4)CC3)cn2c1N(C)c1nc(-c2ccc(F)cc2)c(C#N)s1` [ZIRITAXESTAT], the solubility (kinetic) is 96.9 µM (≈ 57 µg/mL) in series [3], 200 µM (≈ 118 µg/mL) in series [6] and 97 µM (≈ 57.1 µg/mL) in series [10]. In the case of `NS(=O)(=O)c1ccc(-n2nc3c(c2NC(=O)c2cccc4ccccc24)CSC3)cc1`, the IC50 in series [1] turned out to be 79.8 µM. Take `O=C(Nc1c2c(nn1-c1ccc(Br)cc1)CSC2)c1ccc(C(F)(F)F)cc1`: the IC50 in [2] turned out to be 37.3 µM. Take `O=C(O)c1ccc(-n2nc3c(c2NC(=O)c2cccc4ccccc24)CSC3)cc1`: the IC50 in series [1] was determined as 48.3 µM.

For the molecule `COc1ccc(-n2nc3c(c2NC(=O)c2cccc4ccccc24)CSC3)cc1`, the half-inhibitory concentration (IC50) in [1] and in series [2] was over 100 µM throughout.

Regarding `O=C(CCN1CCN(C(=O)OCc2cc(Cl)cc(Cl)c2)CC1)c1ccc2[nH]c(=O)oc2c1`, the kinetic solubility was 1.22 µM (≈ 0.584 µg/mL) in series [3] and 15.4 µM (≈ 7.35 µg/mL) in [6]. In the case of `O=C(Cc1ccc(F)cc1)Nc1c2c(nn1-c1ccncc1)CSC2`, the IC50 in series [2] was over 50 µM.

Turning to `O=C(Nc1c2c(nn1-c1ccc(Br)cc1)CSC2)c1cc(Cl)cc(Cl)c1`, the CC50 at 48 h in series [4] was over 100 µM. Further, the Activity entry in [5] and in series [7] was “Dose-Dependent Effect” each time. The half-inhibitory concentration (IC50) in [1] was found to be 1.8 µM; in series [2], 6.7 µM. The solubility (kinetic) in series [6] was 5.02 µM (≈ 2.36 µg/mL); in series [10] it was 4.18 µM (≈ 1.96 µg/mL). The Ki in series [8] came out at 6.26 µM. For the same molecule, the inhibition result in series [9] was “Active”. With `O=C(Nc1c2c(nn1-c1ccc(Br)cc1)CCC2)c1cc(Cl)cc(Cl)c1`, in series [2], the IC50 was 6.6 µM.

On to `O=C(Nc1c2c(nn1-c1ccc([N+](=O)[O-])cc1)CSC2)c1cccc2ccccc12`, for which the concentration for half-maximal inhibition (IC50) in [11] worked out at 73 µM; in [1], 38.4 µM; in series [2], 16 µM. In addition, in [4], the CC50 at 48 h was over 100 µM. This molecule also came in with a kinetic solubility in series [6] of 2.73 µM (≈ 1.14 µg/mL). Regarding `O=C(Nc1c2c(nn1-c1ccncc1)CSC2)c1cccc2ccccc12`, the values for the half-inhibitory concentration (IC50) in series [1] and in series [2] were 2.7 µM and 5.3 µM, respectively. For `O=C(Nc1c2c(nn1-c1cnccn1)CSC2)c1cccc2ccccc12`, the half-inhibitory concentration (IC50) in series [11] was 0.33 µM; in [1], 1.8 µM; in series [2] it was 0.9 µM. Turning to `O=C(Cc1ccc(F)cc1)Nc1c2c(nn1-c1ccc(Br)cc1)CSC2`, the 50% inhibitory concentration (IC50) in series [2] was found to be 7.6 µM. Consider `O=C(CN1CCN(C(=O)c2cc(Cl)cc(Cl)c2)CC1)Nc1ccn(-c2ccc(Br)cc2)n1`, for which the IC50 in series [2] is 25 µM.

“Autotaxin (Homo sapiens) (from UniProt Q13822)”: the Km (in general, the concentration of substrate that gives half-maximal velocity) in series [12] is 17.1 µM; in [13], 5.61 µM. As to `CO[C@](C(=O)Nc1c2c(nn1-c1ccc(Br)cc1)CCC2)(c1ccccc1)C(F)(F)F`, the half-maximal inhibitory concentration (IC50) in [2] came to 24.4 µM. In the case of `O=C(Nc1c2c(nn1-c1ccc(C(F)(F)F)cc1)CSC2)c1cccc2ccccc12`, the IC50 in series [1] was 46.6 µM.

Regarding `O=C(Nc1c2c(nn1-c1ccc(F)c(F)c1)CSC2)c1cccc2ccccc12`, in series [1], the half-maximal inhibitory concentration (IC50) came to 63 µM.

With `O=C(Nc1c2c(nn1-c1ccc(Br)cc1)CSC2)c1cccc2ccccc12`, the IC50 in series [1] is 5.3 µM; in series [2], 4.6 µM. `O=C(Nc1c2c(nn1-c1cc(F)cc(F)c1)CSC2)c1cccc2ccccc12`: the half-maximal inhibitory concentration (IC50) in series [1] was 53.7 µM. Take `O=C(c1cc(Cl)cc(Cl)c1)N1CCN(c2c3c(nn2-c2ccc(Br)cc2)CSC3)CC1`: the half-maximal inhibitory concentration (IC50) in series [2] was 70 µM.
